Results published in PubChem BioAssay (NCI).
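48-hour exposure; five concentrations; linearly interpolated endpoints. GI50 is the concentration that inhibits growth by half. TGI denotes the concentration required for complete inhibition of growth.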

How the values were obtained:
Experiment in all cases: DTP human tumour cell line panel, 48 h
CCRF-CEM leukemia = system: CCRF-CEM leukemia
NCI-H226 lung = system: NCI-H226 lung
RXF 393 renal = system: RXF 393 renal
OVCAR-8 ovarian = system: OVCAR-8 ovarian
NCI-H522 lung = system: NCI-H522 lung
COLO 205 colon = system: COLO 205 colon
MALME-3M melanoma = system: MALME-3M melanoma
A549 NSCLC = system: A549 NSCLC
A498 renal = system: A498 renal
SK-MEL-2 melanoma = system: SK-MEL-2 melanoma

SMILES | GI50 (CCRF-CEM leukemia) [µM] | TGI (CCRF-CEM leukemia) [µM] | GI50 (NCI-H226 lung) [µM] | TGI (NCI-H226 lung) [µM] | GI50 (RXF 393 renal) [µM] | TGI (RXF 393 renal) [µM] | GI50 (OVCAR-8 ovarian) [µM] | TGI (OVCAR-8 ovarian) [µM] | GI50 (NCI-H522 lung) [µM] | TGI (NCI-H522 lung) [µM] | GI50 (COLO 205 colon) [µM] | TGI (COLO 205 colon) [µM] | GI50 (MALME-3M melanoma) [µM] | TGI (MALME-3M melanoma) [µM] | GI50 (A549 NSCLC) [µM] | TGI (A549 NSCLC) [µM] | GI50 (A498 renal) [µM] | TGI (A498 renal) [µM] | TGI (SK-MEL-2 melanoma) [µM] | GI50 (SK-MEL-2 melanoma) [µM]
COc1ccc2sc3cccc(NCCN(C)C)c3c(=O)c2c1 | 2.43 | 8.39 | 3.34 | 14.1 | 2.67 | 9.76 | 3.3 | 12.5 | 2.79 | 10.1 | 1.75 | 3.42 | 1.95 | 3.88 | 2.57 | 7.15 | 1.2 | 9.38 |  | 
CCOC(=O)c1ccccc1OC(=O)NNc1ccccc1 | 1.8 | > 100 | > 23.7 | > 100 | > 100 | > 100 | 9.19 | > 100 | 1.67 | > 100 | 2.45 | > 100 | 5.44 | > 100 | 0.874 | > 100 | > 68 | > 100 | > 29.3 | 
O=C1/C(=N\O)c2ccccc2S1(=O)=O |  | > 100 |  | > 100 |  | > 100 |  | > 100 |  | > 100 |  | 73.6 |  | > 100 |  | > 100 |  | > 100 | > 100 | 
O=S(=O)([O-])c1ccc(N=Cc2ccccc2[O-])cc1.O=S(=O)([O-])c1ccc(N=Cc2ccccc2[O-])cc1.[O]=[U+2]=[O] | > 100 | > 100 | > 100 | > 100 | 81.7 | > 100 | > 100 | > 100 | > 100 | > 100 | 84.8 | > 100 | > 100 | > 100 | > 100 | > 100 | > 100 | > 100 | > 100 | > 100
CCN(CC)CCNc1ccc(C)c2sc3cc(Cl)ccc3c(=O)c12 | 1.44 | 3.36 | 1.74 | 3.58 | 1.57 | 3.05 | 1.9 | 3.49 | 2.04 | 3.77 | 1.62 | 3.35 | 1.84 | 3.61 | 1.76 | 3.28 | 1.89 | 4.79 | 3.72 | 1.88
NS(=O)(=O)OCC1OC(n2cnc3cncnc32)C(O)C1O (stereo unspecified) | 0.0389 | > 21.1 | 0.0344 | 0.222 | 0.0235 | 0.065 | < 0.01 | 0.0466 | < 0.01 | 0.0232 | 0.0291 | 0.0847 | 0.0469 | 0.272 | 0.0246 | 0.115 | 0.0216 | 0.0821 | 0.133 | 0.0351
COc1ccc2c(c1)[n+]([O-])c(-c1ccc([N+](=O)[O-])cc1)c(N)[n+]2[O-] |  | > 100 |  | > 100 |  | > 100 |  | > 100 |  | 32.9 |  | > 100 |  | > 100 |  | > 100 |  | > 100 | > 100 | 
CC12OOC(c3ccccc31)c1c2ccc2ccccc12 (stereo unspecified) |  | 2.8 |  | 39.3 |  | 7.53 |  | 20.9 |  | 1.99 |  | 3.24 |  | 5.79 |  | 8.43 |  | 32.1 | 24.9 | 
COC1C(CO)OC(n2c3ccccc3c3c4c(c5c6ccccc6[nH]c5c32)C(=O)NC4=O)C(O)C1O (stereo unspecified) | < 0.01 | 2.42 | 0.0113 | 0.108 | 0.114 | 0.877 | 0.0327 | 1.48 | < 0.01 | 0.153 | < 0.036 | 2.14 | < 0.018 |  | 0.621 |  | 0.016 | 0.0998 | 0.856 | 0.234
COc1cc2nccc(Oc3ccc(NC(=O)NC4CC4)c(Cl)c3)c2cc1C(N)=O | 62.6 | > 100 | 1.1 | > 43.4 | 12.4 | 43.4 | 17.5 | > 79.1 | 5.74 | 28.2 | > 72.8 | > 100 | 40.7 | > 100 | 29.9 | > 100 | 4.63 | 51.1 | 48.6 | 19.1
CCOC(=O)[C@@H](C)C[C@H](Cc1ccccc1)NC(=O)c1nc([C@@H](C[C@H](C(C)C)N(C)C(=O)[C@@H](NC(=O)[C@H]2CCCCN2C)C(C)C)OC(C)=O)sc1CCOCc1ccccc1 | 0.0795 | > 6.52 | 0.107 | 1.05 | 0.0657 | 1.53 | 0.216 | 2.08 | 0.029 | 0.319 | 0.0522 | 0.276 | 0.0602 | 2.17 | 0.101 | 2.17 | 0.0264 | 0.417 | 2.39 | 0.0639
CCOC(=O)c1ccc(Nc2sc(C(=O)c3ccc(Br)cc3)c(N)c2C#N)cc1 | 1.43 | > 100 | 19.2 | > 100 | 1.78 | > 100 | 6.91 | > 100 | 0.53 | > 100 | 0.675 | 2.47 | 3.66 | > 100 | 1.06 | > 100 | 0.321 | 6.02 | > 100 | 1.27
CN(C)c1ccc(/C=C/C(=O)[O-])cc1.CN(C)c1ccc(/C=C/C(=O)[O-])cc1.[Cu+2] |  | > 100 |  | > 100 | > 100 | > 100 |  | > 100 |  | > 100 |  | > 100 |  | > 100 |  | > 100 |  | > 86.4 | > 100 | 
CCCCCCCC/C=C/CCCCCCCC1=NC(C)(C)CN1CC(C)O (stereo unspecified) | 2.24 | 5.97 | 6.25 | 23.7 | 1.53 | 3.39 | 1.97 | 3.9 | 1.92 | 4.33 | 1.76 | 3.45 | 1.97 | 4.67 | 1.8 | 3.42 | 0.935 | 17 | 5.21 | 2.28
